The values below come from patent US20240358777A1, “COMPOSITIONS COMPRISING BACILLUS AMYLOLIQUEFACIENS FOR PREVENTING AND TREATING ULCERATIVE COLITIS” (Artugen Therapeutics Ltd., priority 2021, published 2024).

For assay [1], the system named is ART24. Kind of assay: Additional EFSA-recommended MIC studies on ART24 lots and cell banks (Table 7). It counts as cell-based, Bacillus amyloliquefaciens. The procedure:
The minimum inhibitory concentration (MIC) of the listed antimicrobials is expressed as μg/mL. Additional studies following EFSA testing recommendations were performed on lyophilized ART24 lots CO-33-10A2 and CO-33-12A2 and Research and Master Cell Banks CO-33-ART24 BHI and CO-33-ART24 SYD, and those results are shown in Table 7.

The test system of assay [2] is ART24. Kind of assay: Antibiotic susceptibility of ART24, MIC, VetMIC Lact-1 & Lact-2 panels (Table 6). The settings on record: for MIC: Bacillus amyloliquefaciens, read-out: ART24 MIC. It counts as cell-based, Bacillus amyloliquefaciens. Here is the method: The minimum inhibitory concentration (MIC) of the listed antimicrobials is expressed as μg/mL. […] From this suspension 46 μL was transferred in to 23 mL of 90% Iso-Sensitest Broth (CM0473, Oxoid) containing 10% BHI broth to end with a final inoculum concentration of 5×10^5 CFU/mL. The wells of the prefabricated 96-well plates were filled with 100 μL of the final suspension. The plates were sealed with an […], Sigma Aldrich) sealing film (to facilitate growth of the […] strains. The plates were then incubated for 24 hr at 37° C. The results are recorded after 24 hours as the lowest concentration of the antibiotic to inhibit visible growth. The prefabricated panels […], Uppsala, Sweden) comprising the antibiotics ampicillin, vancomycin, gentamicin, kanamycin, streptomycin, erythromycin, clindamycin, tetracycline, chloramphenicol, neomycin, penicillin, quinupristin-dalfopristin, linezolid, trimethoprim, ciprofloxacin and rifampicin were used.

Setting [3] is: Bacillus amyloliquefaciens, source CO-33-10A2 (lyophilized lot), read-out: MIC.
The mark [4] stands for this setting: Bacillus amyloliquefaciens, source CO-33-12A2 (lyophilized lot), read-out: MIC.
Setting [5] is: Bacillus amyloliquefaciens, source CO-33 ART 24 BHI, read-out: MIC.
[6] abbreviates: Bacillus amyloliquefaciens, source CO-33 ART 024 SYD, read-out: MIC.
[7] abbreviates: 24 hr at 37° C., average results from N = 6.

Converted amounts (≈) assume the structure as drawn. Some results are limits rather than exact numbers.

Regarding `[H]/N=C(/N)N[C@H]1[C@H](O)[C@@H](O)[C@H](O[C@@H]2O[C@@H](C)[C@](O)(C=O)[C@H]2O[C@@H]2O[C@@H](CO)[C@H](O)[C@@H](O)[C@@H]2NC)[C@@H](N/C(N)=N\[H])[C@@H]1O` [Streptomycin], the minimal inhibitory concentration (MIC) was 1 µg/mL (≈ 1.72 µM) in assay [1] (setting [3]); 1 µg/mL (≈ 1.72 µM) in assay [1] (setting [4]); 1 µg/mL (≈ 1.72 µM) in assay [1] (setting [5]); 2 µg/mL (≈ 3.44 µM) in assay [1] (setting [6]); 4 µg/mL (≈ 6.88 µM) in assay [2] (setting [7]). Besides, the MIC interpretation entry in assay [1] (source CO-33-10A2), in assay [1] (source CO-33-12A2), in assay [1] (source CO-33 ART 24 BHI) and in assay [1] (source CO-33 ART 024 SYD) was “(S)” in each case.
Turning to `CC1(C)S[C@@H]2[C@H](NC(=O)[C@H](N)c3ccccc3)C(=O)N2[C@H]1C(=O)O` [Ampicillin], the MIC in assay [1] (setting [3]) is no more than 0.03 µg/mL; in assay [1] (setting [4]) it was no more than 0.03 µg/mL; in assay [1] (setting [5]) it was no more than 0.03 µg/mL; in assay [1] (setting [6]) it was no more than 0.03 µg/mL; in assay [2] (setting [7]) it was 0.25 µg/mL (≈ 0.715 µM). Further, the MIC interpretation entry in assay [1] (source CO-33-10A2), in assay [1] (source CO-33-12A2), in assay [1] (source CO-33 ART 24 BHI) and in assay [1] (source CO-33 ART 024 SYD) was “(S)” in each case.
For `O=C(N[C@H](CO)[C@H](O)c1ccc([N+](=O)[O-])cc1)C(Cl)Cl` [Chloroamphenicol, Chloramphenicol], the MIC in assay [1] (setting [3]) amounted to 2 µg/mL (≈ 6.19 µM); in assay [1] (setting [4]), 2 µg/mL (≈ 6.19 µM); in assay [1] (setting [5]) it was 2 µg/mL (≈ 6.19 µM); in assay [1] (setting [6]) it was 2 µg/mL (≈ 6.19 µM); in assay [2] (setting [7]), 4 µg/mL (≈ 12.4 µM). The MIC interpretation entry in assay [1] (source CO-33-10A2), in assay [1] (source CO-33-12A2), in assay [1] (source CO-33 ART 24 BHI) and in assay [1] (source CO-33 ART 024 SYD) was “(S)” throughout.
Turning to Quinupristin-dalfopristin, the MIC stood at 1 µg/mL in assay [1] (source CO-33-10A2 (lyophilized lot)), 2 µg/mL in assay [1] (source CO-33-12A2 (lyophilized lot)), 2 µg/mL in assay [1] (source CO-33 ART 24 BHI) and 2 µg/mL in assay [1] (source CO-33 ART 024 SYD). Further, the “ART24 MIC” value in assay [2] (setting [7]) stood at 4 µg/mL.
In the case of `CN[C@H](CC(C)C)C(=O)N[C@H]1C(=O)N[C@@H](CC(N)=O)C(=O)N[C@H]2C(=O)N[C@H]3C(=O)N[C@H](C(=O)N[C@H](C(=O)O)c4cc(O)cc(O)c4-c4cc3ccc4O)[C@H](O)c3ccc(c(Cl)c3)Oc3cc2cc(c3O[C@@H]2O[C@H](CO)[C@@H](O)[C@H](O)[C@H]2O[C@H]2C[C@](C)(N)[C@H](O)[C@H](C)O2)Oc2ccc(cc2Cl)[C@H]1O` [Vancomycin], the MIC is no more than 0.25 µg/mL in assay [1] (Bacillus amyloliquefaciens, source CO-33-10A2 (lyophilized lot)); no more than 0.25 µg/mL in assay [1] (Bacillus amyloliquefaciens, source CO-33-12A2 (lyophilized lot)); 0.5 µg/mL (≈ 0.345 µM) in assay [1] (Bacillus amyloliquefaciens, source CO-33 ART 24 BHI); no more than 0.25 µg/mL in assay [1] (Bacillus amyloliquefaciens, source CO-33 ART 024 SYD); 0.5 to 1 µg/mL (≈ 0.345 to 0.69 µM) in assay [2] (24 h). The MIC interpretation entry in assay [1] (source CO-33-10A2), in assay [1] (source CO-33-12A2), in assay [1] (source CO-33 ART 24 BHI) and in assay [1] (source CO-33 ART 024 SYD) was “(S)” each time.
For the compound `CO[C@H]1/C=C/O[C@@]2(C)Oc3c(C)c(O)c4c(O)c(c(/C=N/N5CCN(C)CC5)c(O)c4c3C2=O)NC(=O)/C(C)=C\C=C\[C@H](C)[C@H](O)[C@@H](C)[C@@H](O)[C@@H](C)[C@H](OC(C)=O)[C@@H]1C` [Rifampicin], the MIC was determined as 0.25 µg/mL (≈ 0.304 µM) in assay [1] (setting [3]); 0.25 µg/mL (≈ 0.304 µM) in assay [1] (setting [4]); 0.25 µg/mL (≈ 0.304 µM) in assay [1] (setting [5]); 0.25 µg/mL (≈ 0.304 µM) in assay [1] (setting [6]); 0.5 µg/mL (≈ 0.608 µM) in assay [2] (setting [7]). In addition, the MIC interpretation entry in assay [1] (source CO-33-10A2), in assay [1] (source CO-33-12A2), in assay [1] (source CO-33 ART 24 BHI) and in assay [1] (source CO-33 ART 024 SYD) was “(S)” throughout.
For `CCc1c(Cl)c(O)c(Cl)c(O)c1C(=O)O[C@H]1[C@H](O)[C@H](OC)[C@H](OC/C2=C\C=C\C[C@H](O)/C(C)=C/[C@H](CC)[C@@H](O[C@@H]3OC(C)(C)[C@@H](OC(=O)C(C)C)[C@H](O)[C@@H]3O)/C(C)=C/C(C)=C/C[C@@H]([C@@H](C)O)OC2=O)O[C@@H]1C` [Fidaxomicin], the MIC in assay [1] (setting [3]) stood at 2 µg/mL (≈ 1.89 µM); in assay [1] (setting [4]) it was 4 µg/mL (≈ 3.78 µM); in assay [1] (setting [5]), 4 µg/mL (≈ 3.78 µM); in assay [1] (setting [6]), 4 µg/mL (≈ 3.78 µM).
As for `Cc1ncc([N+](=O)[O-])n1CCO` [Metronidazole], the MIC in assay [1] (Bacillus amyloliquefaciens, aerobic, source CO-33-10A2, read-out: MIC) is greater than 64 µg/mL; in assay [1] (Bacillus amyloliquefaciens, aerobic, source CO-33-12A2, read-out: MIC) it was greater than 64 µg/mL; in assay [1] (Bacillus amyloliquefaciens, aerobic, source CO-33 ART 24 BHI, read-out: MIC) it was greater than 64 µg/mL; in assay [1] (Bacillus amyloliquefaciens, aerobic, source CO-33 ART 024 SYD, read-out: MIC), greater than 64 µg/mL; in assay [1] (Bacillus amyloliquefaciens, anaerobic, source CO-33-10A2, read-out: MIC), 64 µg/mL (≈ 374 µM); in assay [1] (Bacillus amyloliquefaciens, anaerobic, source CO-33-12A2, read-out: MIC) it was 64 µg/mL (≈ 374 µM). Besides, the MIC in assay [1] (Bacillus amyloliquefaciens, anaerobic, source CO-33 ART 24 BHI, read-out: MIC) amounted to 64 µg/mL (≈ 374 µM); in assay [1] (Bacillus amyloliquefaciens, anaerobic, source CO-33 ART 024 SYD, read-out: MIC), 64 µg/mL (≈ 374 µM).

Broadly, the MIC is the lowest concentration that inhibits growth of the organism.
